Columns and labels:
USP7 = USP7 (Homo sapiens, UniProt Q93009); experiment: MALDI-TOF DUB assay, inhibitor IC50 on USP7; type: biochemical; details: for potency for USP7 relative to the second most sensitive DUB on the panel (USP21): from IC50 values
panel of 32 DUBs = type: biochemical, human
[1] = type: physicochemical; details: 1 mM DTT or 0.5 mM TCEP, 30 °C for 1 h, DUB assay conditions; data not shown

Chain of USP7 (Q93009 whole entry): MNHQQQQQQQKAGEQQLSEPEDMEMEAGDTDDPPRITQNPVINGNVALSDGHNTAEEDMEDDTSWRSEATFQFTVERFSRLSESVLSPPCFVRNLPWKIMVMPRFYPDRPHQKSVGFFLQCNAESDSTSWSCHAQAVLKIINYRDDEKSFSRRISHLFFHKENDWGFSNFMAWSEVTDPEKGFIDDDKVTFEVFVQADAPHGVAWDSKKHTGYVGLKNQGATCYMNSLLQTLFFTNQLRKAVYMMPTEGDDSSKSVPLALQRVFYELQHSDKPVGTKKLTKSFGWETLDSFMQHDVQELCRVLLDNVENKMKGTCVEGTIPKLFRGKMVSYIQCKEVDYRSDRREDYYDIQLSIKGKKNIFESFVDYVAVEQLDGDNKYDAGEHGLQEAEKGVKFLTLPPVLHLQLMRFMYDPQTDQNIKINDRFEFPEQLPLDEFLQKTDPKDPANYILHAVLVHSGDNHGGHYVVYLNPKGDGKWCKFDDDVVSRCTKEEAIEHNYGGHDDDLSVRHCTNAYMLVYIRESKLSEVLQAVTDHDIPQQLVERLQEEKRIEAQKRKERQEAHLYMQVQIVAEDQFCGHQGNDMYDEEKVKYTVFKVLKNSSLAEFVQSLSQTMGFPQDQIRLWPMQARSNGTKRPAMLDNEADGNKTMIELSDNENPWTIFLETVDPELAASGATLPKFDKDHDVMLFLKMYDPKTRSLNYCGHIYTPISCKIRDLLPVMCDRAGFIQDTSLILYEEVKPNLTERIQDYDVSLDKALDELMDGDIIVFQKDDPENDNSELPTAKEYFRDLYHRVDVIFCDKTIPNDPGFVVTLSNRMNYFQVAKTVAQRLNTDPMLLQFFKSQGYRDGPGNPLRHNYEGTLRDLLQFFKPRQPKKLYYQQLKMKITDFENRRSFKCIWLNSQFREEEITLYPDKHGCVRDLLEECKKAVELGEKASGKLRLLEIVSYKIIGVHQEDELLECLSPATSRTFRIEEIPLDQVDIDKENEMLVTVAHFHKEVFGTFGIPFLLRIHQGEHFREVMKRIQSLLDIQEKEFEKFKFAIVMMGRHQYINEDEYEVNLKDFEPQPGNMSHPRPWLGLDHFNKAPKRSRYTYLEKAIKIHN

Cc1ccc(S(=O)(=O)/C=C/C#N)cc1 [BAY 11-7082]
potency for USP7 relative to the second most sensitive DUB on the panel (USP21) (USP7): five- to eightfold higher potency

N#Cc1nc2c(nc1C#N)-c1ccc(Cl)cc1C2=O [HBX 41,108]
number of DUBs inhibited more than 70% (panel of 32 DUBs; of the 32 DUBs tested, at 5 μM): 25

Cc1ccc(S(=O)(=O)c2ccc([N+](=O)[O-])o2)cc1 [NSC 697923]
potency for USP7 relative to the second most sensitive DUB on the panel (USP21) (USP7): five- to eightfold higher potency
potency for USP7 relative to HBX 41,108 (USP7; ratio of IC50 values, 0.08 μM versus 5.97 μM): 70 fold

N#CSc1cc(SC#N)c(N)nc1N [PR-619]
number of DUBs inhibited (panel of 32 DUBs; of the 32 tested DUBs): 27

CCC[C@H](NC(=O)/C(C#N)=C/c1cccc(Br)n1)c1ccccc1 [WP1130]
reaction with reducing agents DTT and TCEP [1]: significantly reacted with both DTT and TCEP
